The subject of test [1] is human cancer cells, including homozygously p53 gene-deleted. The test can be described thus: toxicity of subject peptides to human cancer cells. In kind it is cell-based. The procedure:
The following experiment was performed to compare effectiveness of subject peptides having the leader sequence attached to the amino terminal end.

In another test the test system is TUC-3 cells. The test can be described thus: TUC-3 transformed pancreatic cancer cells in culture treated with synthetic peptide. In kind it is cell-based, rat. The following applies: for EFFECT: Table 3, leader is SEQ ID NO:4. The source says:
(§1) A line of rat pancreatic acinar cells (BMRPA.430) grown in culture was transformed with K-ras.

For test [2], the system named is non-malignant and non-transformed human breast cell lines. The test can be described thus: non-malignant, non-transformed human breast cell lines treated with synthetic peptide. In kind it is cell-based. The following applies: 100 μg/ml.
Test [3] has as its system human breast carcinoma cell lines. The test can be described thus: human breast carcinoma cell lines treated with synthetic peptide. In kind it is cell-based. The note with it: 100 μg/ml.
The next test has as its system HeLa cells. The test can be described thus: HeLa cells treated with synthetic peptide. The note with it: 100 μg/ml. Type of test: cell-based.
Another test deals with Melanoma cells. The test can be described thus: Melanoma cells treated with synthetic peptide. Type of test: cell-based. The following applies: 100 μg/ml.
Test [4] has as its system non-malignant and non-transformed fibroblast cell lines. Put plainly: non-malignant, non-transformed fibroblast cell lines treated with synthetic peptide. In kind it is cell-based, human. The following applies: 100 μg/ml.
The subject of the next test is BMRPA.430 cells. Put plainly: normal pancreatic acinar cells BMRPA.430 in culture treated with synthetic peptide. Type of test: cell-based, rat. The following applies: 50 μg/ml; normal cell line.
Source text: as §1

The test system of test [5] is malignant or normal cells. The test can be described thus: control peptide with leader on malignant or normal cells. The following applies: leader SEQ ID NO:4 at carboxy terminal end of control peptide. Type of test: cell-based.
Source text: When the leader sequence set forth in SEQ ID NO:4 was positioned at the carboxy terminal end of PNC29, a control protein having the following amino acid sequence: [sequence]
Test [6] deals with pancreatic carcinoma cells BMRPA1. TUC-3. The test can be described thus: s.c. BMRPA1.TUC-3 xenotransplant in Nu/Nu mice, established tumors, osmotic pump delivery (Example II). In kind it is in vivo. The method, then:
Nu/Nu mice (Harlan Laboratories, Indianapolis, Ind., n=10) and weighing 20-22 g, were xenotransplanted subcutaneously (s.c.) with live pancreatic carcinoma cells BMRPA1. TUC-3 (1×10^6 cells/mouse) in the left hind region.
Each group was implanted s.c. with Alzet® osmotic pumps to deliver in a constant rate and over a defined period of 14 days a total volume of 0.095 ml volume of normal saline containing the respective peptide at a concentration of 20 mg/mouse. […] The pumps were filled according to the manufacturers guidelines and under sterile conditions The pumps were implanted s.c. on the left flank of the anaesthetized mice by creating a pocket underneath the mouse skin into which the tiny pumps were inserted. Each pocket was closed with a simple suture. From their inside chamber the pumps delivered continuously 0.25 μl/hr into each mouse. The mice were observed until they had recovered from the surgery when they were returned to the isolation ward of the animal facility. Since the animals were Nu/Nu mice and, thus, immuno-compromised they are highly susceptible when exposed to pathogens. Surgery and all preceding and post-surgical treatments were therefore performed in a sterile hood environment.

The test system of another test is cultured cancer cells. The test can be described thus: cultured cancer cells treated with peptide without leader or with leader alone. In kind it is cell-based. The note with it: 100 μg/ml. The procedure:
When cultured cancer cells were treated with a peptide with the primary structure of SEQ ID NO:1 without a leader sequence attached, at a dosage of 100 μg/ml, the cells were unaffected. Similarly, when cultured cancer cells were treated with leader sequence SEQ ID NO:4, the presently preferred leader sequence, at the same dosage, the cell were also unaffected.

Take “PNC 21: p53 seq. 12-20 (PPLSQETFS) (SEQ ID NO: 2)-Leader; leader is KKWKMRRNQFWVKVQRG (SEQ ID NO:4) (PPLSQETFSKKWKMRRNQFWVKVQRG; amino acid residue 12-20 of human p53 protein; penetration leader sequence from antennapedia)”: the “toxicity to a wide variety of human cancer cells” value in test [1] is recorded as “strongly toxic”. Further, the EFFECT result in the test on TUC-3 cells is “Cytotoxic”.

Consider “PNC 27: p53 seq. 12-26 (PPLSQETFSDLWKLL) (SEQ ID NO: 1)-Leader; leader is KKWKMRRNQFWVKVQRG (SEQ ID NO:4) (PPLSQETFSDLWKLLKKWKMRRNQFWVKVQRG; amino acid residue 12-26 of human p53 protein; penetration leader sequence from antennapedia)”, for which, in test [1], the “toxicity to a wide variety of human cancer cells” value is “strongly toxic”. The “effect on non-malignant and non-transformed human breast cell lines” value in test [2] was “no effect”. The “cell death in human breast carcinoma cell lines” value in [3] is “cell death was observed”. Further, the “death of TUC-3 cells” value in the test on TUC-3 cells (100 μg/ml) is “died within three to four days”. The EFFECT entry in the test with TUC-3 cells is given as “Cytotoxic”. Further, the “cell death in HeLa cells” value in the test on HeLa cells is on record as “cell death was observed”. For the same substance, in the test on Melanoma cells, the “cell death in Melanoma cells” value is reported as “cell death was observed”. Also, the “effect on non-malignant and non-transformed fibroblast cell lines” value in test [4] is on record as “no effect”. For the same substance, the “effect on BMRPA.430 cells” value in the test on BMRPA.430 cells is on record as “not affected”.

For the substance “PNC-29: control peptide of similar size, amino acid sequence MPFSTGKRIMLGE (SEQ ID NO: 25); in b48 with leader SEQ ID NO:4 at carboxy end (used as a control)”, the “effect on malignant or normal cells” value in test [5] is listed as “no effect”. For the same substance, the “effect on normal or tumor cells” value in test [6] (control peptide, s.c. pump, 20 mg/mouse) was “no effect”. Moreover, the tumor diameter in test [6] (over the 2-week treatment and follow-up period) was in the range of 10 to 16 mm. In addition, the tumor growth result in test [6] (s.c. pump over 14 days, 20 mg/mouse, tumors 3 to 6 mm at start) is listed as “kept growing at a continuous rate”.

For “SEQ ID NO:1 without a leader sequence attached: peptide PPLSQETFSDLWKLL (SEQ ID NO:1) without a leader sequence attached (amino acid residue 12-26 of human p53 protein)”, in the test with cultured cancer cells, the “effect on cultured cancer cells” value is recorded as “unaffected”.

With “SEQ ID NO:4: penetratin leader sequence from antennapedia protein alone, KKWKMRRNQFWVKVQRG (penetration leader sequence from antennapedia)”, the “effect on cultured cancer cells” value in the test with cultured cancer cells is reported as “unaffected”.
